ChEMBL document CHEMBL2390877, “Structural requirements for inhibitory effects of bisphenols on the activity of the sarco/endoplasmic reticulum calcium ATPase” (Bioorg Med Chem, 2013)
Calls of active or inactive are those of the source. No cut-off for these calls is given here.

Columns and labels:
[1] = Inhibition of rabbit skeletal muscle sarco/endoplasmic reticulum calcium ATPase assessed as inhibition of ATP hydrolysis by spectrophotometric analysis; set-up: species or system Oryctolagus cuniculus
Homo sapiens = organism: Homo sapiens; experiment: Inhibition of sarco/endoplasmic reticulum calcium ATPase in human GM08333 cells assessed as inhibition of calcium ion uptake at 50 uM measured for 1 min by Fura-2AM staining assay; type: cell-based
Serum = experiment: Drug uptake in human serum; type: ADME, cell-free

| SMILES | IC50 [1] | IC50 ([1]; read-out: IC50) [µM] | other results |
| --- | --- | --- | --- |
| Nc1cc(C(c2ccc(O)c(N)c2)(C(F)(F)F)C(F)(F)F)ccc1O | Not Active | – | – |
| Cc1ccc(O)c(Cc2cc(C)ccc2O)c1 | – | 300 | – |
| CC(C)(c1cc(Br)c(OCCO)c(Br)c1)c1cc(Br)c(OCCO)c(Br)c1 | Not Active | – | – |
| CC(c1ccc(O)cc1)c1ccc(O)cc1 | – | 90 | – |
| CC(C)(c1cc(Br)c(O)c(Br)c1)c1cc(Br)c(O)c(Br)c1 | – | 4.7 | inhibition (Homo sapiens): Active; Drug uptake (Serum): 0.3 µM |
| Oc1ccc(C(c2ccc(O)cc2)(C(F)(F)F)C(F)(F)F)cc1 | Not Active | – | – |
| Nc1ccc(C2(c3ccc(N)cc3)CCCCC2)cc1 | Not Active | – | – |
| CC(C)c1cc(C(C)(C)c2ccc(O)c(C(C)C)c2)ccc1O | – | 3.4 | – |
| CC(CCC(=O)O)(c1cc(Cl)c(O)c(Cl)c1)c1cc(Cl)c(O)c(Cl)c1 | – | 25 | – |
| CC(C)(C)c1cc(Cc2cc(C(C)(C)C)c(O)c(C(C)(C)C)c2)cc(C(C)(C)C)c1O | – | 16 | – |
| CC(C)(c1cc(Br)c(OCC2CO2)c(Br)c1)c1cc(Br)c(OCC2CO2)c(Br)c1 (stereo not drawn) | Not Active | – | – |
| CC(C)(c1cc(Cl)c(O)c(Cl)c1)c1cc(Cl)c(O)c(Cl)c1 | – | 5.5 | inhibition (Homo sapiens): Active |
| C=CCc1cc(C(C)(C)c2ccc(O)c(CC=C)c2)ccc1O | – | 2.2 | – |
| Cc1cc(C(C)(C)c2ccc(O)c(C)c2)ccc1O | – | 24 | – |
| Oc1c(Cl)cc(Cl)cc1Cc1cc(Cl)cc(Cl)c1O | – | 31 | inhibition (Homo sapiens): Active |
| O=C(c1ccc(O)cc1)c1ccc(O)cc1 | – | 200 | – |
| Oc1c(F)cc(C(c2cc(F)c(O)c(F)c2)(C(F)(F)F)C(F)(F)F)cc1F | – | 2.8 | – |
| CC(C)(c1cc(N)c(O)c(N)c1)c1cc(N)c(O)c(N)c1 | Not Active | – | – |
| Cc1cc(C(C)(C)c2cc(C)c(O)c(C)c2)cc(C)c1O | – | 2.6 | – |
| Oc1ccc(Cc2ccc(O)cc2)cc1 | Not Active | – | – |
| CC(C)(c1ccc(O)cc1)c1ccc(O)cc1 [BISPHENOL A] | – | 140 | – |
| Nc1ccc(C(c2ccc(N)cc2)(C(F)(F)F)C(F)(F)F)cc1 | Not Active | – | – |
| CC(C)(c1ccc(O)c(-c2ccccc2)c1)c1ccc(O)c(-c2ccccc2)c1 | – | 91 | inhibition (Homo sapiens): Active |
| CC(C)(c1ccc(O)c(C2CCCCC2)c1)c1ccc(O)c(C2CCCCC2)c1 | – | 94 | inhibition (Homo sapiens): Active |
| Oc1c(Cl)cc(Cl)c(Cl)c1Cc1c(O)c(Cl)cc(Cl)c1Cl [HEXACHLOROPHENE] | – | 4 | inhibition (Homo sapiens): Active |
| Oc1ccc(C2(c3ccc(O)cc3)CCCCC2)cc1 | – | 27 | – |
